In patent publication US7615560B2, “Thienopyrimidines as cooling agents” (Conopco, Inc., priority 2004, dated 2009) one finds EC50 data, which are given here for one compound.

This assay concerns the target T1, human TRPM8 channel (Homo sapiens, UniProt Q7Z2W7).
T1 construct: The open reading frame of human cDNA TRPM8 from position 41-3355bp was amplified; expressed in transfected cells
Nature of the assay: Intracellular calcium (fluo-4 fluorescence) assay in HEK 293 cells stably expressing human TRPM8. Format: cell-based. To be noted: fluo-4 calcium fluorescence, concentration producing one-half of maximal response (DFmax). The source says: Humans can detect changes in temperature from noxious cold (<8 C) to noxious heat (>52 C) due to activation of sensory nerve fibers. “The principal temperature sensors in the sensory nerve fibers are members of a family of transient receptor potential (TRP) cation channels” (Voets et al., 2004). In humans the sensation of cooling is elicited by activation of channel TRPM8, which is activated at temperatures below 28 C (Voets et al., 2004). Furthermore human TRPM8 is activated by compounds such as menthol (Brauchi et al., Proc. Natl. Acad. Sci. USA, 2004, Oct. 26; 101 (43):15494-9; Voets et al., Nature, 2004, 430 (7001): 748-54). […]
The open reading frame of human cDNA TRPM8 from position 41-3355bp was amplified from a human prostate cDNA library (Stratagene) using primers […] and […] as previously described previously (Tsavalier et al., 2001). […]
Cells stably expressing the human TRPM8 were seeded in a 96 well plate (coated with polylysine) at a density of 10^5 cells /well in 200 μl of media. […] The dye was then removed and the cells were incubated in a Tyrodes buffer (containing 1 mM probenicide, pH 7.4) pre-equilibrated at a certain temperature (i.e 37° C.) and the intracellular calcium levels were monitored at the same temperature, using the Novostar plate reader. The cells in each well were illuminated at 480 nm, and the fluorescent light emitted at 510 nm was measured. […]

T1 sequence (Q7Z2W7 whole entry): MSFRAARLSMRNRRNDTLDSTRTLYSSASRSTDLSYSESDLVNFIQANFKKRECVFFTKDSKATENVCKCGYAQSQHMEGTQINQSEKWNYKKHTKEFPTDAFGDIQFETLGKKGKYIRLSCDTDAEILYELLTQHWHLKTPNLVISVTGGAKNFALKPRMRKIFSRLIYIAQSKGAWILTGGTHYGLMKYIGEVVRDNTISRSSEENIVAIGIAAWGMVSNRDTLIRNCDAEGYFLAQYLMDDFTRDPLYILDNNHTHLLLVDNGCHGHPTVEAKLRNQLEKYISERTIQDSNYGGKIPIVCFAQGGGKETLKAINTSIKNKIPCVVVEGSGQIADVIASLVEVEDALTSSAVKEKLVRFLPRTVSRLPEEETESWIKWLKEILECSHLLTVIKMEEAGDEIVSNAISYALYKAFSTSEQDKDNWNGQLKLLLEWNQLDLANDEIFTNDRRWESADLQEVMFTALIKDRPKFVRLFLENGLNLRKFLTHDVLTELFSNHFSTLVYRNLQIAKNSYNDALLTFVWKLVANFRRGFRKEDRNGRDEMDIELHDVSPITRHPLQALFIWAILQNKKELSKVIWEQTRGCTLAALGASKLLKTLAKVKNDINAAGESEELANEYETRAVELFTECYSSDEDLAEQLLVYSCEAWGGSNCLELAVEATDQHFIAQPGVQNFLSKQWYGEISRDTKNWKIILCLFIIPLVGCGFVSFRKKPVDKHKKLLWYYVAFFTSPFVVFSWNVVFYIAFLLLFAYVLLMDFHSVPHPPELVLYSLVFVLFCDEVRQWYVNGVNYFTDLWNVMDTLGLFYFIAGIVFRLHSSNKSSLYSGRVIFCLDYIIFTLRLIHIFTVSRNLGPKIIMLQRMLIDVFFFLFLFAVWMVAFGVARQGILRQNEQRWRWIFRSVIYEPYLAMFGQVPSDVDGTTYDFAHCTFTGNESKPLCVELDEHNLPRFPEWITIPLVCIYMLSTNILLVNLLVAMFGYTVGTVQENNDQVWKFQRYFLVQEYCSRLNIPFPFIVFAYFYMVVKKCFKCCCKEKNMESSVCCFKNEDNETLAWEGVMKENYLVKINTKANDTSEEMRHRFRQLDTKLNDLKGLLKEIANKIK

As usually defined, the EC50 is the concentration at which the effect is half-maximal. For the compound `CCCn1cnc2sc3c(c2c1=N)CCCC3` [Example 1, 3-propyl-5,6,7,8-tetrahydro-3H-benzo[4,5]-thieno[2,3-d]pyrimidin-4-ylidene amine], the EC50 came to 6.5 µM.
